Source: patent publication US20250302948A1, “DR5 Agonist and IAP Antagonist Combination Therapy” (Inhibrx Biosciences, Inc., priority 2022, published 2025)

Assays:
CAL-78 = assay: Cytotoxicity on chondrosarcoma cell lines, assay similar to Example 1 (Example 4)
Description: (§4) Day 1-Cell Seeding. Monolayer cultures of each cell line were harvested for compound screening as detailed below. Culture medium was aspirated, and the cells were washed once with PBS. Accutase was added and flasks were incubated at 37° C. until cells became detached. An equal volume of complete medium was added to quench the Accutase, and the cells were then pipetted up and down several times to generate a homogenous single cell suspension. The density and viability of cells was determined by Trypan Blue using a TC20 Automated Cell Counter. Experimental cells were resuspended to a concentration of 0.17×10^6/mL in EMEM/10% FBS/Anti-Anti media (complete EMEM) and seeded in the inner wells of 384-well luminescence plates at 15 μL/well (2,500/well final). Each cell line was plated in duplicate on separate plates. […]
(§5) Day 4—Viability Measurements. […] Any visible bubbles were removed with 100% ethanol vapor, then luminescence (RLU) was read on the Spectra Max M5e plate reader, using the 384-well opaque plate setting and SoftMaxPro v5.4 software with an integration time of 50 milliseconds. To determine the effect of test articles on cell viability, raw RLU values were exported to Excel and percent survival was calculated as a percentage of vehicle control (0.2% DMSO in EMEM), where the vehicle control is set at 100%. […]

HCC1187 = assay: Cytotoxicity on breast cancer cell lines, assay similar to Example 3 (Example 4); settings: Homo sapiens
Description: (§6) Day 1—Cell Seeding. Monolayer cultures of each cancer cell line (see Table 7) were harvested during the logarithmic growth period. The density and viability of cells was determined by Trypan Blue using a Vi cell counter, cells were diluted in the appropriate growth media (see Table 7) and 90 μL cell suspensions were added to 96-well plates for compound screening as detailed below. Two duplicate plates were set up for day 0 reading (T0) and for reading at the end point (T48).
(§7) To generate a 10× working dilution plate of the small molecules, a 1:100 dilution was performed from the 1000× plate into the appropriate media.
(§8) Day 2—Compound Treatment. […] The plates were then incubated in a 37° C. humidity-controlled tissue culture incubator (5% CO2).
(§9) 20 μL culture medium containing 1% DMSO and 50 μL CellTiter-Glo® Reagent was added to each well of the TO plates and the contents mixed, plate was incubated at room temperature for 30 min, and read on an En Vision Multi Label Reader.
(§10) Day 4—Viability Measurements. 50 μL CellTiter-Glo® Reagent was added to each well of the T48 plates and the contents mixed, plate was incubated at room temperature for 30 min, and read on an EnVision Multi Label Reader. […] Percent cytotoxicity was calculated by subtracting the % survival from 100.

HCC1395 = assay: as above; settings: Homo sapiens
Description: (§11) Day 1—Cell Seeding. […] Two duplicate plates were set up for day 0 reading (T0) and for reading at the end point (T48).
as §7, §8, §9
(§12) Day 4—Viability Measurements. 50 μL CellTiter-Glo® Reagent was added to each well of the T48 plates and the contents mixed, plate was incubated at room temperature for 30 min, and read on an EnVision Multi Label Reader. The formula for calculating percent survival is: % survival=(LumTest article−LumMedium control)/(LumNone treated−LumMedium control)×100%. Percent cytotoxicity was calculated by subtracting the % survival from 100.

SNU-1 = assay: Cytotoxicity on gastric cancer cell lines, assay similar to Example 1 (Example 4); settings: Homo sapiens, SNU1
Description: as §4
(§13) Day 4—Viability Measurements. […] Any visible bubbles were removed with 100% ethanol vapor, then luminescence (RLU) was read on the Spectra Max M5e plate reader, using the 384-well opaque plate setting and SoftMaxPro v5.4 software with an integration time of 50 milliseconds. To determine the effect of test articles on cell viability, raw RLU values were exported to Excel and percent survival was calculated as a percentage of vehicle control (0.2% DMSO in EMEM), where the vehicle control is set at 100%.

SW1990 = assay: Cytotoxicity on pancreatic cancer cell lines, assay similar to Example 1 (Example 4); settings: Homo sapiens
Description: as §4, §5

HS 578T = assay: Cytotoxicity on breast cancer cell lines, assay similar to Example 3 (Example 4); settings: Homo sapiens
Description: as §11, §7, §8, §9, §12

SUM159PT = assay: as above; settings: Homo sapiens, SUM-159-PT
Description: as §6, §7, §8, §9, §10

AsPC-1 = assay: Cytotoxicity on pancreatic cancer cell lines, assay similar to Example 1 (Example 4); settings: Homo sapiens, ASPC1
Description: as §4, §13

MIA-PaCa-2 = assay: as above; settings: Homo sapiens
Description: as §4, §5

HCC1937 = assay: Cytotoxicity on breast cancer cell lines, assay similar to Example 3 (Example 4); settings: Homo sapiens
Description: (§14) Two duplicate plates were set up for day 0 reading (T0) and for reading at the end point (T48).
as §7, §8, §9, §12

DU4475 = assay: as above; settings: Homo sapiens, DU-4475
Description: as §6, §7, §8, §9, §10

HCC2935 = assay: Cytotoxicity on lung cancer cell lines, assay similar to Example 1 (Example 4); settings: Homo sapiens
Description: as §4, §5

NCI-H2452 = assay: as above; settings: Homo sapiens
Description: as §4, §5

NCI-N87 = assay: Cytotoxicity on gastric cancer cell lines, assay similar to Example 1 (Example 4); settings: Homo sapiens
Description: as §4, §13

SW1353 = assay: Cytotoxicity on chondrosarcoma cell lines, assay similar to Example 1 (Example 4); settings: Homo sapiens
Description: as §4, §5

HCC1806 = assay: Cytotoxicity on breast cancer cell lines, assay similar to Example 3 (Example 4); settings: Homo sapiens
Description: as §6, §7, §8, §9, §10

CAL-120 = assay: as above; settings: Homo sapiens
Description: as §14, §7, §8, §9, §12

SW620 = assay: CellTiter-Glo cell viability, 48 h (Examples 1, 2); type: cell-based; settings: Homo sapiens, SW-620
Description: (§1) Test Article Preparation for INBRX-109.
(§2) Day 2—Test and Control Article Addition.
(§3) Day 4—Viability Measurements. […] Data was graphed in GraphPad Prism 7.

Panc-1 = assay: Cytotoxicity on pancreatic cancer cell lines, assay similar to Example 1 (Example 4); settings: Homo sapiens
Description: as §4, §13

NCI-H23 = assay: Cytotoxicity on lung cancer cell lines, assay similar to Example 1 (Example 4); settings: Homo sapiens
Description: as §4, §5

BT-549 = assay: Cytotoxicity on breast cancer cell lines, assay similar to Example 3 (Example 4); settings: Homo sapiens
Description: as §14, §7, §8, §9, §12

H-EMC-SS = assay: Cytotoxicity on chondrosarcoma cell lines, assay similar to Example 1 (Example 4)
Description: as §4, §5

SNU-5 = assay: Cytotoxicity on gastric cancer cell lines, assay similar to Example 1 (Example 4); settings: Homo sapiens
Description: as §4, §13

OUMS-27 = assay: Cytotoxicity on chondrosarcoma cell lines, assay similar to Example 1 (Example 4)
Description: as §4, §5

BT-20 = assay: Cytotoxicity on breast cancer cell lines, assay similar to Example 3 (Example 4); settings: Homo sapiens
Description: as §14, §7, §8, §9, §12

CAL-51 = assay: as above; settings: Homo sapiens
Description: as §11, §7, §8, §9, §12

A549 = assay: Cytotoxicity on lung cancer cell lines, assay similar to Example 1 (Example 4); settings: Homo sapiens
Description: as §4, §5

HCC70 = assay: Cytotoxicity on breast cancer cell lines, assay similar to Example 3 (Example 4); settings: Homo sapiens
Description: as §6, §7, §8, §9, §10

SNU-C2B = assay: CellTiter-Glo cell viability, 48 h (Example 1); type: cell-based; settings: Homo sapiens
Description: as §1, §2, §3

HT-29 = assay: CellTiter-Glo cell viability, 48 h (Example 1); type: cell-based; settings: Homo sapiens
Description: as §1, §2, §3

LS411N = assay: CellTiter-Glo cell viability, 48 h (Example 1); type: cell-based; settings: Homo sapiens, LS-411N
Description: as §1, §2, §3

NCI-H460 = assay: Cytotoxicity on lung cancer cell lines, assay similar to Example 1 (Example 4); settings: Homo sapiens
Description: as §4, §5

MX = assay: Cytotoxicity on breast cancer cell lines, assay similar to Example 3 (Example 4)
Description: as §14, §7, §8, §9, §12

For `CC[C@H](NC(=O)[C@H](C)NC)C(=O)N1C[C@@H](O)C[C@H]1Cc1c(-c2[nH]c3cc(F)ccc3c2C[C@@H]2C[C@H](O)CN2C(=O)[C@H](CC)NC(=O)[C@H](C)NC)[nH]c2cc(F)ccc12` [Birinapant, birinapant], the cytotoxicity at 2 µM (CAL-78) was 14%, the cytotoxicity at 3.16 µM (HCC1187) was 36% and the cytotoxicity at 3.16 µM (HCC1395) was 8.93%. For the same compound, the cytotoxicity at 2 µM (SNU-1) was 7.62%, the cytotoxicity at 2 µM (SW1990) was 10.4% and the cytotoxicity at 3.16 µM (HS 578T) was 12.7%. The cytotoxicity at 3.16 µM (SUM159PT) was -1.7%, the cytotoxicity at 2 µM (AsPC-1) was 9.46% and the cytotoxicity at 2 µM (MIA-PaCa-2) was 9.17%. For the same compound, the cytotoxicity at 3.16 µM (HCC1937) was -2.77%, the cytotoxicity at 3.16 µM (DU4475) was 14.3% and the cytotoxicity at 2 µM (HCC2935) was 13.9%. For the same compound, the cytotoxicity at 2 µM (NCI-H2452) was 6.11%, the cytotoxicity at 2 µM (NCI-N87) was 1.82% and the cytotoxicity at 2 µM (SW1353) was 0.1%. It also gave a cytotoxicity at 3.16 µM (HCC1806) of 5.17%, a cytotoxicity at 3.16 µM (CAL-120) of 2.75% and a cytotoxicity at 5 µM (SW620) of 11.7%. For the same compound, the cytotoxicity at 2 µM (Panc-1) was 11.7%, the cytotoxicity at 2 µM (NCI-H23) was 9.3% and the cytotoxicity at 3.16 µM (BT-549) was 6.85%. It also gave a cytotoxicity at 2 µM (H-EMC-SS) of 31.1%, a cytotoxicity at 2 µM (SNU-5) of 59.6% and a cytotoxicity at 2 µM (OUMS-27) of -0.15%. The cytotoxicity at 3.16 µM (BT-20) was 6.51%, the cytotoxicity at 3.16 µM (CAL-51) was 2.35% and the cytotoxicity at 2 µM (A549) was 11.3%. The cytotoxicity at 3.16 µM (HCC70) was 34%, the cytotoxicity at 5 µM (SNU-C2B) was 71.1% and the cytotoxicity at 5 µM (HT-29) was 20.4%. It also gave a cytotoxicity at 5 µM (LS411N) of 14.3%, a cytotoxicity at 2 µM (NCI-H460) of 6.55% and a cytotoxicity at 3.16 µM (MX) of -7.11%.
